From patent US6096725A, “Methods of using αGal oligosaccharides as immune system targeting agents” (Neose Technologies, Inc., priority 1997, dated 2000)
Read-outs that look alike come from different tables or passages of the source.

Legend:
[1] = tested on: hyperacute rejection (HAR) of porcine heart xenografted to the neck of a baboon; type: in vivo; details: for Onset of IgG, IgM and complement (C3) deposition at the endothelial surface: immunofluorescence
From the text: Primate model for testing and application of αGal oligosaccharides and dosages thereof. Due to the many similarities between human and baboon immune systems (Neubauer et al., 1981, J. Immunogenetics, 8:433-442; Garver et al., 1980, Cytogenetics & Cell Genetics, 27:238-245; Brodsky et al., 1982, Immunogenetics, 155:151-166; Hammer, C., in Hardy, M. A. (ed.), Xenograft 25, 115-123 (Elsevier, N.Y., 1989); Stark, J. H., et al., Transplantation, 30 52(6):1072-1078 (December 1991); Hammer, C., in Cooper, D. K. C., et al. (eds.), Xenotransplantation, 429-438 (Springer-Verlag 1991)), and because of the large size of baboons, these animals are convenient experimental model recipients of pig organs. These non-human primates also express anti-pig antibodies, and reject pig organs hyperacutely (Lexer et al., 1986, J. Heart Transplant, 4:411-418; Ye, Y., Cooper, D. K. C., in Cooper, D. K. C., et al. (eds.), Xenotransplantation,389-393 (Springer-Verlag 1991); Cooper et al., 1991, J. Heart Transplant, 7:238-246, 1988; Platt et al., 1991, Transplantation, 52(2):214-220). A normal porcine heart was transplanted into the neck of a normal baboon. αGal pentasaccharide was infused (i.v.) to establish and maintain blood oligosaccharide levels predicted to inhibit HAR until infusate was exhausted (See Table 2). The ability of i.v. infused αGal pentasaccharide to block hyperacute rejection (HAR) of porcine heart xenografted to the neck of a baboon was determined and blood levels of αGal oligosaccharide, anti-αGal antibodies, and serum or plasma cytotoxicity toward pig kidney and mouse endothelial cells was monitored and correlated with the onset of HAR.
The heart was excised from the pig donor and transplanted in the neck of the baboon recipient using techniques essentially as described by Cooper et al., 1993, Transplantation, 56:769-777.
The two xenotransplant baboons were outfitted with an indwelling catheter to the femoral vein to infuse compound and a catheter to the femoral artery for blood sampling. Following the transplant procedure, but just prior to providing circulatory access to the xenograft, the oligosaccharide was administered by i.v. pump through the catheter in a 15 min loading dose, followed by continuous 4 hour infusion to achieve 2.5 mM blood concentration (as determined by calculations presented in Table 2). […] Blood specimens collected for plasma were immediately centrifuged and the plasma withdrawn and stored frozen at -20° C. Blood specimens collected for serum were clotted at 4° C. overnight and the withdrawn serum frozen at -20° C. The αGal pentasaccharide was prepared according to the enzymatic methods set forth in example 6.2 and stored as a dry, white, solid powder. The oligosaccharide was dissolved in 250 mL sterile infusion grade saline to a concentration of 0.154 g/mL, or 177 mM. Induction anesthesia was with ketamine hydrochloride 5 mg/kg/body weight in and 0.5 mg/kg of xylazine iv. Intravenous fluid of approximately 20 ml/kg body weight was given during the course of the operative procedure through either a peripheral or central vein. Atropine 0.5 mg/kg was given iv. The larynx was sprayed with 2% lidocaine. Endotracheal intubation was carried out. The endotracheal tube was taped to the maxilla. The pig or baboon was ventilated with a Harvard positive pressure ventilator. Anesthesia was maintained with nitrous oxide 2 L/min and oxygen 1 L/min and 0.2%-1.2% halothane, at a respiratory rate of approximately 10 to 20 breaths per minute depending on the size of the animal. Tidal volume (approximately 20-24 ml/kg) was also adjusted to suit the size of the animal, and the ventilatory pressure was adjusted to approximately […]. Blood gases were checked, and ventilation adjusted as necessary. Arterial pressure was monitored in the recipient baboon by intermittent automatic cuff recordings. […]

[2] = tested on: pig kidney endothelial cell line, PK-15; type: cell-based; details: 240 min
Procedure: Sera were incubated with serial dilutions of αGal oligosaccharides at 37° C. for 1 hour, then added to αGal-expressing monolayers (pig kidney cells, PK-15) in Terasaki plates for 1 hour at 37° C. Cytotoxicity was mediated by either endogenous complement, or the sera were de-complemented (heat inactivated for 30 minutes at 56° C.) and exogenous (rabbit) complement was added. After washing away excess serum, the viable dye mix "live-dead" (calcein AM/ethidium homodimer (Molecular Probes Inc., Eugene Oreg.)) was added and monolayers were scored for viability by fluorescence microscopy.
The two xenotransplant baboons were outfitted with an indwelling catheter to the femoral vein to infuse compound and a catheter to the femoral artery for blood sampling. Following the transplant procedure, but just prior to providing circulatory access to the xenograft, the oligosaccharide was administered by i.v. pump through the catheter in a 15 min loading dose, followed by continuous 4 hour infusion to achieve 2.5 mM blood concentration (as determined by calculations presented in Table 2). […] Blood specimens collected for plasma were immediately centrifuged and the plasma withdrawn and stored frozen at -20° C. […] Arterial pressure was monitored in the recipient baboon by intermittent automatic cuff recordings.

[3] = set-up: species or system baboon; details: in vivo
Procedure: The two xenotransplant baboons were outfitted with an indwelling catheter to the femoral vein to infuse compound and a catheter to the femoral artery for blood sampling. Following the transplant procedure, but just prior to providing circulatory access to the xenograft, the oligosaccharide was administered by i.v. pump through the catheter in a 15 min loading dose, followed by continuous 4 hour infusion to achieve 2.5 mM blood concentration (as determined by calculations presented in Table 2). […] Blood specimens collected for plasma were immediately centrifuged and the plasma withdrawn and stored frozen at -20° C. Blood specimens collected for serum were clotted at 4° C. overnight and the withdrawn serum frozen at -20° C. The αGal pentasaccharide was prepared according to the enzymatic methods set forth in example 6.2 and stored as a dry, white, solid powder. The oligosaccharide was dissolved in 250 mL sterile infusion grade saline to a concentration of 0.154 g/mL, or 177 mM. Induction anesthesia was with ketamine hydrochloride 5 mg/kg/body weight in and 0.5 mg/kg of xylazine iv. Intravenous fluid of approximately 20 ml/kg body weight was given during the course of the operative procedure through either a peripheral or central vein. Atropine 0.5 mg/kg was given iv. […] Arterial pressure was monitored in the recipient baboon by intermittent automatic cuff recordings.

With `CC(=O)N[C@H]1[C@H](O[C@H]2[C@@H](O)[C@@H](CO)O[C@@H](O[C@H]3[C@H](O)[C@@H](O)C(O)O[C@@H]3CO)[C@@H]2O)O[C@H](CO)[C@@H](O[C@@H]2O[C@H](CO)[C@H](O)[C@H](O[C@H]3O[C@H](CO)[C@H](O)[C@H](O)[C@H]3O)[C@H]2O)[C@@H]1O` (stereo partly drawn) [αGal pentasaccharide, Galα1-3Galβ1-4GlcNAcβ1-3Galβ1-4Glc] the “Onset of IgG, IgM and complement (C3) deposition at the endothelial surface” value ([1]; first baboon) was 1.5 h, the “Alteration in blood chemistry” value ([1]; in vivo) was “increase in creatinine phosphokinase” and the Hematology results ([1]; in vivo) was “unremarkable”. For the same molecule, the Xenograft histology ([1]; initial 3 hours of infusion, data not shown) was “Essentially normal histology”, the “Onset of IgG, IgM and complement (C3) deposition at the endothelial surface” value ([1]; second baboon) was 3 h and the “Xenograft heart beat during infusion” value ([1]; two baboons, four hour infusion, result in words) was “an even beat was maintained for the duration of the four hour oligosaccharide infusion”. For the same molecule, the “Time of xenograft excision after cessation of the 4 hour infusion” value ([1]; two baboons, untreated pig hearts rejected in 5-10 minutes) was “more than 1 hour”, the “Reduction of cytotoxicity of baboon sera against PK-15” value [2] was 85-95% and the “Blood concentration relative to prediction from earlier pharmacokinetic infusions” value [3] was “approximately twice what was predicted”.
